These results are taken from ChEMBL document CHEMBL1909046, “DrugMatrix in vitro pharmacology data”.

Experiment [1] concerns the target T1, Cholecystokinin receptor type A (Homo sapiens, UniProt P32238). Also: in other assays of this panel Not Active means under 50% inhibition at 10 µM.
T1 sequence (P32238 whole entry): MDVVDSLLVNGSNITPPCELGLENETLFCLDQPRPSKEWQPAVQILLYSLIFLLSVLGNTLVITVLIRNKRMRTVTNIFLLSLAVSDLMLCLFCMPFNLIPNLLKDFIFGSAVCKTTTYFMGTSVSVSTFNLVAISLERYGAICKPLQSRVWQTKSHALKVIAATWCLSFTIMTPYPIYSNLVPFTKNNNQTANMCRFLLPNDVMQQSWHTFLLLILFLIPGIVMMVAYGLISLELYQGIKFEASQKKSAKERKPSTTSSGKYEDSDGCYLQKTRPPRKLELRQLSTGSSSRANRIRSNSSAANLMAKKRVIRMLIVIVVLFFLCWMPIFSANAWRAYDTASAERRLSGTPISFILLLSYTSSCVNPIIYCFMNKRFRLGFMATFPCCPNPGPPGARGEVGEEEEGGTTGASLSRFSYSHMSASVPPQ
It is filed as cell membranes, Membrane. Particulars: 1321-n1.

For the next experiment, the target named is Melanocortin receptor 4 (Homo sapiens, UniProt P32245). It is filed as cell membranes, HEK293, Membrane. Particulars: hek293. Also: in other assays of this panel Not Active means under 50% inhibition at 10 µM.
A short description of experiment [2]: DRUGMATRIX: Phosphodiesterase PDE4 enzyme inhibition (substrate: [3H]cAMP + cAMP). Particulars: u-937; Not Active = under 50% inhibition at 10 µM.
Another experiment deals with T2, Estrogen receptor (Homo sapiens, UniProt P03372).
T2 sequence (P03372 whole entry): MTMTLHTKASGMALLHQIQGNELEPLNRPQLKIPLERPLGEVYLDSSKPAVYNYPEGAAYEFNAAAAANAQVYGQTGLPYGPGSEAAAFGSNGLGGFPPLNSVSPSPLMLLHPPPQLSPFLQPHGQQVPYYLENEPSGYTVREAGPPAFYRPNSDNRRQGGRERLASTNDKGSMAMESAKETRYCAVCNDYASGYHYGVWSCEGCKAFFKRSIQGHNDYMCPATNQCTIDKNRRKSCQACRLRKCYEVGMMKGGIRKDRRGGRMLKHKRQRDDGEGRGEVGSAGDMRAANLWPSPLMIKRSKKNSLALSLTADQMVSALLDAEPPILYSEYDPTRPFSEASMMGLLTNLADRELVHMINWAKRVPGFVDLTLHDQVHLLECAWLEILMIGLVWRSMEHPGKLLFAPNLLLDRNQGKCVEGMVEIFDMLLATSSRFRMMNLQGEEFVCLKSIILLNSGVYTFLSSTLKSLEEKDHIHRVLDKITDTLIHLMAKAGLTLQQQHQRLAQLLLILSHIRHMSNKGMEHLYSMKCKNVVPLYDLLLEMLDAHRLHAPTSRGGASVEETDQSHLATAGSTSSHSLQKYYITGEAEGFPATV
Particulars: sf9.

The target of experiment [3] is Beta-1 adrenergic receptor (Homo sapiens, UniProt P08588). In words: DRUGMATRIX: Adrenergic beta1 radioligand binding (ligand: [125I] Cyanopindolol). Format: cell membranes, CHO-K1, Membrane. Particulars: cho-k1; Not Active = under 50% inhibition at 10 µM.
For experiment [4], the target named is T3, Muscarinic acetylcholine receptor M4 (Homo sapiens, UniProt P08173). Also: in other assays of this panel Not Active means under 50% inhibition at 10 µM.
T3 sequence (P08173 whole entry): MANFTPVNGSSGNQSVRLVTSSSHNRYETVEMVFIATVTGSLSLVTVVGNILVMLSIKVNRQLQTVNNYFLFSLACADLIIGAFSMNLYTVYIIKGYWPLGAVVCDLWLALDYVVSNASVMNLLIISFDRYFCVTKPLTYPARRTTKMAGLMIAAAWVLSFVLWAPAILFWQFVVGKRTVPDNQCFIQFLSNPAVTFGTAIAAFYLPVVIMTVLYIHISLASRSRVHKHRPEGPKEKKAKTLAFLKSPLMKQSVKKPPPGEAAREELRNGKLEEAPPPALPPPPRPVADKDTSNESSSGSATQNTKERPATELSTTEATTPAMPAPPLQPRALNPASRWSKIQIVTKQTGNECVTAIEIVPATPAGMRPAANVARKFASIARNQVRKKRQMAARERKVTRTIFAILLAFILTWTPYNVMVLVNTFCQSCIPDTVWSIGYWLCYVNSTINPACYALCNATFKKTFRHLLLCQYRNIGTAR
It is filed as cell membranes, CHO-K1, Membrane.

Beta-1 adrenergic receptor, sequence (P08588 whole entry): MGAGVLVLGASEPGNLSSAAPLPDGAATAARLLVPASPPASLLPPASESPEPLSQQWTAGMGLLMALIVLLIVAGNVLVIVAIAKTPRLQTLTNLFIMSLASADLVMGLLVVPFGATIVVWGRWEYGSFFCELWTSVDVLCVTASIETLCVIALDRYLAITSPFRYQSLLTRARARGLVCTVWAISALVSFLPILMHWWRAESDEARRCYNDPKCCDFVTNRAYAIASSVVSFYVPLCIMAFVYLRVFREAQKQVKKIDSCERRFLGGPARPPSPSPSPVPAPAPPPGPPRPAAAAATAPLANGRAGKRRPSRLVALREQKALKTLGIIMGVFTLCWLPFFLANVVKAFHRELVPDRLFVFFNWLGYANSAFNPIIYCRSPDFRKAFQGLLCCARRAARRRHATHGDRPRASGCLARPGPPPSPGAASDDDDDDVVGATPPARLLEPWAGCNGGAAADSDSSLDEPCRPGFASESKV
Melanocortin receptor 4, sequence (P32245 whole entry): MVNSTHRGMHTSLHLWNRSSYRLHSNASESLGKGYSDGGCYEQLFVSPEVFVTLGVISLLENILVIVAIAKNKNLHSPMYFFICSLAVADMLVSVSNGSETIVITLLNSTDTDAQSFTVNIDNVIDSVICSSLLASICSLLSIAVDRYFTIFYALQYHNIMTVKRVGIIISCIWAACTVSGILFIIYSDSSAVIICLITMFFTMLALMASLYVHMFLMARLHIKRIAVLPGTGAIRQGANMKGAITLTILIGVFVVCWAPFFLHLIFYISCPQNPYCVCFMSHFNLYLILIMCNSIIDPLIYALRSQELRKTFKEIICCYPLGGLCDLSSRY

`CC(C)C(=O)Nc1ccc([N+](=O)[O-])c(C(F)(F)F)c1` [FLUTAMIDE]: the IC50 entry (in experiment [1]; at Melanocortin receptor 4; in experiment [2]; at Estrogen receptor; in experiment [3]; in experiment [4] (cho-k1)) was “Not Active” throughout. Also, in experiment [2], the Ki (in general, the equilibrium dissociation constant of an inhibitor or competing ligand from its target) was “Not Active”.
`CCC1(c2ccc(N)cc2)CCC(=O)NC1=O` (stereo not given) [AMINOGLUTETHIMIDE]: the IC50 entry (in experiment [1]; at Melanocortin receptor 4; in experiment [2]; against Estrogen receptor; in experiment [3]; in experiment [4] (cho-k1)) was “Not Active” throughout. Besides, in experiment [2], the Ki entry is “Not Active”.
Regarding `Cc1ccc2cc3c(ccc4ccccc43)c3c2c1CC3` [3-METHYLCHOLANTHRENE], the IC50 entry (in experiment [1]; at Melanocortin receptor 4; in experiment [2]; at Estrogen receptor; in experiment [3]; in experiment [4] (cho-k1)) was “Not Active” in each case. Further, in experiment [2], the Ki result is on record as “Not Active”.
On to `O=C(O)CCCc1ccc(N(CCCl)CCCl)cc1` [CHLORAMBUCIL], for which the half-inhibitory concentration (IC50) result (in experiment [1]; against Melanocortin receptor 4; in experiment [2]; at Estrogen receptor; in experiment [3]; in experiment [4] (cho-k1)) was “Not Active” each time. The Ki entry in experiment [2] is “Not Active”.
As for `C=C(C)C1(O)OC(=O)C=C1OC` (stereo not given) [PENICILLIC ACID], the IC50 entry (in experiment [1]; at Melanocortin receptor 4; in experiment [2]; on Estrogen receptor; in experiment [3]; in experiment [4] (cho-k1)) was “Not Active” each time. Further, the Ki result in experiment [2] was “Not Active”.
Take `CC1CC(OC(=O)C(O)c2ccccc2)CC(C)(C)C1` (stereo not given) [CYCLANDELATE]: the half-maximal inhibitory concentration (IC50) entry (in experiment [1]; at Melanocortin receptor 4; in experiment [2]; on Estrogen receptor; in experiment [3]; in experiment [4] (cho-k1)) was “Not Active” in each case. Moreover, in experiment [2], the Ki result is “Not Active”.
`C1CCC(C(CC2CCCCN2)C2CCCCC2)CC1` (stereo not given) [PERHEXILINE]: the IC50 – broadly, the concentration at which inhibition is half-maximal – in experiment [1] was “Not Active”; against Melanocortin receptor 4, “Not Active”; in experiment [2], “Not Active”; on Estrogen receptor it was “Not Active”; in experiment [3] it was “Not Active”; in experiment [4] (read-out: IC50), 3590 nM. The results for the Ki result in experiment [2] and in experiment [4] (read-out: Ki) were “Not Active” and 501 nM, respectively.
In the case of `CC(C)[C@H]1C(=O)N2CCC[C@H]2[C@]2(O)O[C@](NC(=O)[C@@H]3C=C4c5cccc6[nH]cc(c56)C[C@H]4N(C)C3)(C(C)C)C(=O)N12` [ERGOCORNINE], the IC50 entry (in experiment [1]; against Melanocortin receptor 4; in experiment [2]; on Estrogen receptor; in experiment [3]; in experiment [4] (cho-k1)) was “Not Active” each time. Also, in experiment [2], the Ki entry is “Not Active”.
On to `CC(C)[C@@]1(NC(=O)[C@@H]2C[C@@H]3c4cccc5[nH]cc(c45)C[C@H]3N(C)C2)O[C@@]2(O)[C@@H]3CCCN3C(=O)[C@H](Cc3ccccc3)N2C1=O.CS(=O)(=O)O` [DIHYDROERGOCRISTINE MESYLATE], for which the IC50 result (in experiment [1]; on Melanocortin receptor 4; in experiment [2]; against Estrogen receptor; in experiment [3]; in experiment [4] (cho-k1)) was “Not Active” in each case. Moreover, the Ki entry in experiment [2] is reported as “Not Active”.
With `C[C@]12CCC(=O)C=C1CC[C@@H]1[C@@H]2CC[C@@]2(C)[C@H]1CC[C@]2(C)O` [METHYLTESTOSTERONE], the IC50 result (in experiment [1]; against Melanocortin receptor 4; in experiment [2]; on Estrogen receptor; in experiment [3]; in experiment [4] (cho-k1)) was “Not Active” in each case. In addition, in experiment [2], the Ki result is recorded as “Not Active”.
As to `Nc1nc2c(ncn2COCCO)c(=O)[nH]1` [ACYCLOVIR], the IC50 result (in experiment [1]; on Melanocortin receptor 4; in experiment [2]; against Estrogen receptor; in experiment [3]; in experiment [4] (cho-k1)) was “Not Active” each time. In experiment [2], the Ki entry is recorded as “Not Active”.
On to `CC(C)CN(C[C@@H](O)[C@H](Cc1ccccc1)NC(=O)O[C@H]1CCOC1)S(=O)(=O)c1ccc(N)cc1`, for which the IC50 result (in experiment [1]; at Melanocortin receptor 4; in experiment [2]; on Estrogen receptor; in experiment [3]; in experiment [4] (cho-k1)) was “Not Active” each time. Moreover, the Ki entry in experiment [2] is “Not Active”.
`Cc1c(C)c2c(c(C)c1O)CC[C@@](C)(CCC[C@H](C)CCC[C@H](C)CCCC(C)C)O2` [ALPHA-TOCOPHEROL]: the IC50 entry (in experiment [1]; on Melanocortin receptor 4; in experiment [2]; on Estrogen receptor; in experiment [3]; in experiment [4] (cho-k1)) was “Not Active” each time. The Ki entry in experiment [2] is recorded as “Not Active”.
For `Cc1ccc(/N=C/N(C)/C=N/c2ccc(C)cc2C)c(C)c1` [AMITRAZ], the IC50 entry (in experiment [1]; against Melanocortin receptor 4; in experiment [2]; against Estrogen receptor; in experiment [3]; in experiment [4] (cho-k1)) was “Not Active” in each case. Moreover, the Ki result in experiment [2] is “Not Active”.
Consider CADMIUM ACETATE, for which the IC50 result (in experiment [1]; at Melanocortin receptor 4; in experiment [2]; on Estrogen receptor; in experiment [3]; in experiment [4] (cho-k1)) was “Not Active” in each case. In addition, the Ki result (in experiment [1]; on Melanocortin receptor 4; in experiment [2]; on Estrogen receptor; in experiment [3]; in experiment [4] (cho-k1)) was “Not Active” in each case.
In the case of `CN(Cc1ccc(C(C)(C)C)cc1)Cc1cccc2ccccc12` [BUTENAFINE], the IC50 result (in experiment [1]; at Melanocortin receptor 4; in experiment [2]; against Estrogen receptor; in experiment [3]; in experiment [4] (cho-k1)) was “Not Active” throughout. For the same molecule, the Ki entry in experiment [2] was “Not Active”.
Turning to `C[C@H](CCC(=O)O)[C@H]1CC[C@H]2[C@@H]3[C@H](O)C[C@@H]4C[C@H](O)CC[C@]4(C)[C@H]3C[C@H](O)[C@]12C` [CHOLIC ACID], the IC50 result (in experiment [1]; on Melanocortin receptor 4; in experiment [2]; against Estrogen receptor; in experiment [3]; in experiment [4] (cho-k1)) was “Not Active” in each case. In experiment [2], the Ki result is on record as “Not Active”.
For `CC1=C2C(=CO[C@H](C)[C@H]2C)C(O)=C(C(=O)O)C1=O` [CITRININ], the 50% inhibitory concentration (IC50) entry (in experiment [1]; against Melanocortin receptor 4; in experiment [2]; at Estrogen receptor; in experiment [3]; in experiment [4] (cho-k1)) was “Not Active” each time. In addition, the Ki result in experiment [2] is given as “Not Active”.
As to `O=C(CCCN1CC=C(n2c(=O)[nH]c3ccccc32)CC1)c1ccc(F)cc1` [DROPERIDOL], the IC50 entry in experiment [1] was “Not Active”; at Melanocortin receptor 4 it was “Not Active”; in experiment [2] it was “Not Active”; against Estrogen receptor, “Not Active”; in experiment [3] it was “Not Active”; in experiment [4] (read-out: IC50), 3850 nM. Also, the Ki entry in experiment [2] is “Not Active”; in experiment [4] (read-out: Ki), 537 nM.
